Laboratory results taken from patent US20080311578A1, “System for screening eukaryotic membrane proteins” (Hydra Biosciences, Inc., priority 2004, published 2008).

Columns and labels:
Format in all cases: cell-based
[1] = target: T1, rat TrpV1 (Rattus norvegicus, UniProt O35433); test: TrpV1 mediated calcium flux in CHO cells; settings: FIG. 8
T1 construct: expressed in transfected cells; host or cells: CHO cells
Description: (§1) The Trp channel blocker ruthenium red inhibits TrpV1 mediated calcium flux in bacterial cells or CHO cells.

[2] = target: T2, rat TrpV1 calcium channel (Rattus norvegicus, UniProt O35433); test: aequorin calcium flux assay in bacterial cells expressing rat TrpV1
T2 construct: expressed in transfected cells; host or cells: E. coli (Rosetta-Gami B (DE3) pLysS, Novagen), dual-T7 expression plasmid, co-expressed with aequorin
Method: (§2) 1) 0.5-2 mL of an overnight bacteria (already transformed with a nucleic acid construct or composition encoding a eukaryotic Calcium ion channel and an aequorin marker) culture is innoculated into 25 mL of LB-Amp;
(§3) 2) Bacteria are grown to an OD (optical density) of 0.6;
(§4) 3) 1 mM IPTG added for 2-hour induction;
(§5) 4) Bacteria are spun down, resuspended in ½ volume of nominally divalent free ringers and loaded with coelenterazine;
(§6) 5) Bacteria are rinsed and loaded into 96 well plate ([…]);
(§7) 6) Plate is put in a plate reader, e.g., a Wallac Victor 3;
(§8) 7) Plate is shaken for 2 sec then rested for 5 seconds;
(§9) 8) 10 reads are taken 1 second apart;
(§10) 9) 5 μL of 20 mM CaCl2 is injected;
(§11) 10) 50 reads are taken 1 second apart;
(§12) Note: When a blocker is present, it is added before the plate is put in the reader.
(§13) A further indicator of the functional activity of the ion channel is whether its activity is sensitive to treatment with agonistic or inhibitory agents. FIG. 5 summarizes experiments conducted to address this issue. […] Furthermore, the calcium-flux mediating activity of the channels is inhibited following addition of the calcium channel inhibitor, lanthanum.
as §1

[3] = target: T3, human CatSper 1 calcium channel (Homo sapiens, UniProt Q8NEC5); test: aequorin calcium flux assay in bacterial cells expressing hCatSper1; settings: CatSper1 expressed in bacterial cells, FIG. 5
T3 construct: expressed in transfected cells; host or cells: E. coli (Rosetta-Gami B (DE3) pLysS, Novagen), modified pET dual-T7 vector, co-expressed with apo-aequorin
T3 sequence (Q8NEC5 1-780): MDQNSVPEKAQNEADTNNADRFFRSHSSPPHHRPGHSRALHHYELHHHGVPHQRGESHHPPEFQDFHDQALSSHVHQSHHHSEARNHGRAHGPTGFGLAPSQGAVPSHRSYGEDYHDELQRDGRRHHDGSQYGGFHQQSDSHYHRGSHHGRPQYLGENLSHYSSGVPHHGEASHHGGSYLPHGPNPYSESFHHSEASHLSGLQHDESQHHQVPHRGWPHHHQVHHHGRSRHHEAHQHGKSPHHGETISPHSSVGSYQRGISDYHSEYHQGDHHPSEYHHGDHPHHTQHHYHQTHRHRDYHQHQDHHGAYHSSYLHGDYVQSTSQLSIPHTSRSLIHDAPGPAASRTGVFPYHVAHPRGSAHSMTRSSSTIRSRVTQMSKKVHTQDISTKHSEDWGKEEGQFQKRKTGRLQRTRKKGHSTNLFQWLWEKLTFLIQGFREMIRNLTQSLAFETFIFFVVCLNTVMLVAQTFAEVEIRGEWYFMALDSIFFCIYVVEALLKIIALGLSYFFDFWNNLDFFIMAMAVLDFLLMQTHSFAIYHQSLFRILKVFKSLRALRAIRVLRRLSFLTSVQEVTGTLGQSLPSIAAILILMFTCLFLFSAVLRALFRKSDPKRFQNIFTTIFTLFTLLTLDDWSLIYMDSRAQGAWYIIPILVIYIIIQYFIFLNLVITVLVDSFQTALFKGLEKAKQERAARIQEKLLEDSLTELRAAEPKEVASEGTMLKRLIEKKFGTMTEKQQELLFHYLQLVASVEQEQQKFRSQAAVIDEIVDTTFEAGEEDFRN
Method: as §2, §3, §4, §5, §6, §7, §8, §9, §10, §11, §12, §13

T2 sequence (O35433 whole entry): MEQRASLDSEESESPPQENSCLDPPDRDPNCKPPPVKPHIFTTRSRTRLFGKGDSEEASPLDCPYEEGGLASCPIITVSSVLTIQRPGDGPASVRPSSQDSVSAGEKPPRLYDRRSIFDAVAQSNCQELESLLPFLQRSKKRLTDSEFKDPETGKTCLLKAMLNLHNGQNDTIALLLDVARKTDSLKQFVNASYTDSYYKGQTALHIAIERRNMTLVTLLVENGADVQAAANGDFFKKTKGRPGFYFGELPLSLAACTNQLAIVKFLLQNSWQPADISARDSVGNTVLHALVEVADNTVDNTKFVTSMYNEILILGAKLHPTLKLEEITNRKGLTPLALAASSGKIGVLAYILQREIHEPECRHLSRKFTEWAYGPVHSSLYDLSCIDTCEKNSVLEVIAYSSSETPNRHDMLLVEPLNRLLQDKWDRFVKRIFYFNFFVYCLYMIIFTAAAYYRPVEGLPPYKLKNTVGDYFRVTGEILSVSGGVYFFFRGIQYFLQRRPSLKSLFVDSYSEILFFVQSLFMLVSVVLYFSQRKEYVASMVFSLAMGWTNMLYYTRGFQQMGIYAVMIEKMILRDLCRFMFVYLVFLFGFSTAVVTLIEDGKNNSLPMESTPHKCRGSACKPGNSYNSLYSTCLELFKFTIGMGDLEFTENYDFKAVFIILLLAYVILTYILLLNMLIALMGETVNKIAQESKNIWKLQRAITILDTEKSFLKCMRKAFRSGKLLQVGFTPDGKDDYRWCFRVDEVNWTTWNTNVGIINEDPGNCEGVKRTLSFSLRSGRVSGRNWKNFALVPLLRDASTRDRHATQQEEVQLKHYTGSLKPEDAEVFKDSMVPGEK
T1 sequence (O35433 whole entry): as above

Row | inhibition of TrpV1 mediated calcium flux [1] | potency (IC50) in bacterial cells compared with CHO cells ([2]; bacterial cells vs CHO cells, FIG. 8) | inhibition of TrpV1 mediated calcium flux ([2]; bacterial cells, FIG. 8) | calculated Hill slope values, CHO cells vs bacterial cells ([2]; comparison between the CHO cells and the bacterial cells, FIG. 8) | inhibition of calcium-flux mediating activity of the channel ([2]; TrpV1 expressed in bacterial cells, FIG. 5) | inhibition of calcium-flux mediating activity of the channel [3] | SMILES
1 | inhibits | somewhat less potent | inhibits | not significantly different |  |  | N.N.N.N.N.N.N.N.N.N.N.N.N.N.[Cl-].[Cl-].[Cl-].[Cl-].[Cl-].[Cl-].[O-2].[O-2].[Ru+3].[Ru+3].[Ru+4] [ruthenium red]
2 |  |  |  |  | inhibited in a dose dependent fashion | inhibited in a dose dependent fashion | [La] [lanthanum]
